According to article PMC12423301, “Astrocytic monoamine oxidase B (MAOB)–gamma-aminobutyric acid (GABA) axis as a molecular brake on repair following spinal cord injury” (Signal Transduction and Targeted Therapy, 2025):

Key:
[1] = human
Procedure: Protocol No. NB_KDS_ADP1_21 Confidential
Therapeutics in Adult Healthy Volunteers), with considering the safety factor and the result of the rat that […]
from the NOAEL calculated in the 4-week repeated toxicity test for rats and cynomolgus monkeys, the maximum recommended starting dose (MRSD) was calculated. As a result of converting 0.484 mg/kg, a value obtained by dividing this by the safety factor of 10, into a dose for a healthy adult weighing 60 kg, the MRSD was calculated to be 29.04 mg, and the initial administration dose was set to 30 mg. As a result of a single oral dose toxicity test in rats, 700 mg/kg was reported as a maximum tolerated dose (MTD), and it was calculated as 6774.2 mg/60kg when converted to a human equivalent dose (HED). Therefore, the set maximum dose is expected to be suitable in terms of safety.
Species NOAEL HED factor (Safety factor factor (Safety factor 1/30) […]
5.2.2. Duration of Dosing and Timepoints of Blood samplings/Urine collections
6 hours. In addition, considering that the Tmax of selegiline (ZELAPAR®) and safinamide (XADAGO®), which are similar drugs, are 0.75 hours and 1.83 to 2.83 hours, respectively, pharmacokinetic blood samplings before the estimated Tmax (about 2 hours) were included at 3 or more time points, and the pharmacokinetic blood […]

rat SCI model = assay: BBB locomotor test in rat SCI model; assay type: in vivo, Sprague-Dawley (SD) rats; details: for average BBB score: at PI 10w
Procedure: For the establishment of the mouse and rat SCI models, we followed methods consistent with those of previous studies.[65]–[67] In mice, a laminectomy was performed at thoracic level 10 (T10), and self-closing forceps (11485-11, Fine Science Tools; 0.10 × 0.06 mm tip, 11 cm) were applied to the exposed spinal cord for 3 s to induce injury. In rats, a laminectomy was performed at thoracic level 9 (T9), followed by the application of the same self-closing forceps (11485-11, Fine Science Tools) for 10 s. Each “Sham” group or “SCI” group indicates animals operated by only laminectomy or SCI, respectively.
(S)-2-(((4’-Trifluoromethylbiphenyl-4-yl)methyl)amino)propanamide methane-sulfonate (KDS2010) was dissolved in distilled water. For SD rats, KDS2010 was administered via the drinking water ad libitum. […] To evaluate dose-dependent effects, additional groups received 20 mg/kg/day or 30 mg/kg/day starting at PI 2 weeks. To achieve consistent exposure across animals, we meticulously monitored the daily water intake and body weight of each rat throughout the study. As shown in the Extended Data (Supplementary Table 1), water consumption was calculated weekly via a formula based on body weight (e.g., d.w = weight × 0.09 at week 0; gradually tapering to weight × 0.075 by weeks 8–9). Importantly, all animals were confirmed to have consumed the entirety of the provided medicated water each day, ensuring full ingestion of the intended dose (10 mg/kg/day for the majority of groups, and 20/30 mg/kg/day for the dose-dependent experiments).
Behavioral test was performed every week for a total of 11 weeks (1 week before and 10 weeks after the surgical operation) to assess locomotor recovery. The BBB motor score[22] or BMS score[17] was used to evaluate the quality of hindlimb movement during open field locomotion in rats or mice, respectively. In the first recovery phase, the range of joint movement and the presence of the foot closure on the floor were checked. In the second phase, the recovery of weighted stepping was checked. In the third phase, gait coordination and tail movement were assessed. These scores are “ordinal and the magnitude of behavioral change between ranks may not be consistent,” as originally described.[17] To perform the group allocation in a blinded manner during data collection, animal preparation and behavior tests were performed by at least two different investigators.
In the BBB locomotor test with drug administration beginning at PI 2w, the animals were initially subjected to injury, and then divided into two groups at PI 2w based on the basis of similar averaged BBB scores. Subsequently, these groups were treated with either the vehicle (SCI + V) or the drug (SCI+drug) from PI 2w. To exclude incompletely generated severe rat SCI animals, we established the following criteria: a score difference of more than 4 between PI 1w and 2w, and a score exceeding 8 at PI 2w.

CS(=O)(=O)O.C[C@H](NCc1ccc(-c2ccc(C(F)(F)F)cc2)cc1)C(N)=O [KDS2010, (S)-2-(((4’-Trifluoromethylbiphenyl-4-yl)methyl)amino)propanamide methane-sulfonate]
half-life [1]: ~36 h
BBB locomotor scores (rat SCI model; 10, 20, and 30 mpk from subacute phase, at 10w PI): dose-dependent improvement
average BBB score (rat SCI model; SCI + KDS 2w: 10 mg/kg/day in drinking water from PI 2w (subacute)): 10.62
recovery in BBB locomotor test and ladder rung test (rat SCI model; SCI + KDS 6w: 10 mpk from chronic phase (PI 6w)): significant motor recovery
average BBB score (rat SCI model; SCI + KDS 1 d/Re: 10 mpk from acute phase (PI 1 d), recovery subgroup): 15.36
behavioral recovery in BBB locomotor test (rat SCI model; SCI+KDS1d/No: 10 mpk from acute phase, no-recovery subgroup): did not show any behavioral recovery
pharmacologically active dose (PAD) (rat SCI model; SD rats, for 8 weeks): 10 mpk
